Experimental data reported in EP4692071A1, “PHOTOCHROMIC COMPOUND, NAPHTHOL DERIVATIVE, CURABLE COMPOSITION, OPTICAL ARTICLE, LENS, AND EYEGLASS” (TOKUYAMA CORPORATION, priority 2023, dated 2024).
“And” between values parts separate entries of the source, which are not always exact repeats. Equal entries are not always repeated. Each block holds one compound with its values, some of them ahead of it.

Tests used:
Format in all cases: physicochemical
[1] = 35°C color optical density (A35): absorbancy difference ε(240)-ε(0) after 240 s light irradiation at 35°C; details: photochromic laminate by coating method, 240 s irradiation
Method in brief: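 Color optical density at 35°C (A35) came from light exposure of the sample at 35°C lasting 240 seconds. At the first and second absorption wavelengths, the absorbancy before irradiation, ε(0), was subtracted from the absorbancy measured after irradiation, ε(240). This difference was taken as the measure of color optical density.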

[2] = High-temperature color development rate (A35/A23×100), temperature dependency; details: photochromic laminate by coating method
Method in brief: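 The sample was irradiated with light for 240 seconds at 23°C and separately at 35°C. The gain in absorbance over the unirradiated state, ε(240)−ε(0), gave the color optical densities A23 and A35. A35 divided by A23, multiplied by 100, expressed how well color development holds up at the higher temperature.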

[3] = 23°C color fading half-life τ1/2 after 240 s light irradiation
Description: • [1] Maximum Absorption Wavelength (λmax): The maximum absorption wavelength after color development, measured using a spectrophotometer (instantaneous multichannel photodetector MCPD3000) manufactured by Otsuka Electronics Co., Ltd. was used as an indicator for the color tone during the color development. • [2] 23°C Color Optical Density (A23): A difference between an absorbancy measured after light irradiation at 23°C for 240 seconds {ε(240)} and an absorbancy without light irradiation ε(0) at the maximum absorption wavelength was used as an indicator for the color optical density. […] 35°C Color Optical Density (A35): A difference between an absorbancy measured after light irradiation at 35°C for 240 seconds {ε(240)} and an absorbancy without light irradiation ε(0) at the first and second absorption wavelengths was used as an indicator for the color optical density. […] 23°C color fading half-life [τ1/2 (sec.)]: A time required for the absorbancy of the sample at the maximum absorption wavelength to decrease to 1/2 of {ε(240)-ε(0)} when the light irradiation is terminated after the light irradiation at 23°C for 240 seconds, was used as an indicator for the color fading speed. The shorter this time, the higher the color fading speed. • [6] Residual rate (A90/A0×100): The obtained photochromic plastic lens was subjected to accelerated deterioration using a xenon weather meter X25 manufactured by Suga Test Instruments Co., Ltd. for 90 hours. Subsequently, the color optical density was evaluated before and after the test, then a color optical density before the test (A0) and a color optical density after the test (A90) were measured, and a ratio (A90/A0) was defined as a residual rate. The residual rate was used as an indicator for a color developing durability. The higher the residual rate, the higher the color developing durability.

[4] = Maximum absorption wavelength (λmax) after color development, spectrophotometer MCPD3000; details: photochromic laminate by coating method, 40 µm photochromic layer on thiourethane lens, 0.25 mmol compound per 100 g monomers
Method in brief: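 Read-out: absorbance at λmax, multichannel photodetector spectrophotometer. Colour density = ε(240) − ε(0), 240 s light, 23°C. τ1/2 = time for ε(240) − ε(0) to halve after light off. Residual rate compares density before and after 90 h xenon weathering.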

[5] = 23°C color optical density (A23): absorbancy difference ε(240)-ε(0) after 240 s light irradiation at 23°C; details: photochromic laminate by coating method, 240 s irradiation, at the maximum absorption wavelength
Method in brief: (§1)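 Steps: record the coloured spectrum to find λmax; irradiate the lens for 240 s at 23°C and subtract unirradiated absorbance; stop the light and time the decay to half of that difference; age the lens 90 h under xenon and re-measure colour density.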

[6] = Residual rate (A90/A0×100) after 90 h accelerated deterioration in xenon weather meter X25, color developing durability; details: photochromic laminate by coating method, xenon weather meter 90 hours
Method in brief: as §1

Compound: COCCCC1(CCCOC)c2cc(Sc3c(C)cccc3C)ccc2-c2c1c1c(c3cc(OC)c(N(CCOC)c4ccc(C(F)(F)F)cc4)cc23)OC(c2ccc(OC)cc2)(c2ccc(OC)cc2)C=C1 [Example 57 Formula (132)]
A35 (-) [1]: 0.44 - and 0.48 -
A35/A23 *100 (%) [2]: 67% and 68%
23°C color fading half-life [3]: 0.783 min
Maximum absorption wavelength (nm) [4]: 468 nm and 597 nm
A23 (-) [5]: 0.66 - and 0.71 -
Residual rate (%) [6]: 77%

Compound: CCCCN(c1ccc(C(F)(F)F)cc1)c1cc2c3c(c4c(c2cc1OC)OC(c1ccc(C)cc1)(c1ccc(OC)cc1)C=C4)C1(CCCCCCCCCCC1)c1cc(OC)ccc1-3 (stereo not shown) [Example 54 Formula (123)]
A35 (-) [1]: 0.60 - and 0.80 -
A35/A23 *100 (%) [2]: 74%
23°C color fading half-life [3]: 2.92 min
Maximum absorption wavelength (nm) [4]: 453 nm and 583 nm
A23 (-) [5]: 0.82 - and 1.08 -
Residual rate (%) [6]: 78%

Compound: CCCC1(CCC)c2ccccc2-c2c1c1c(c3cc(OC)c(N(c4ccccc4)c4ccccc4)cc23)OC(c2ccc(C)cc2)(c2ccc(N(C)c3ccccc3)cc2)C=C1 (stereo not shown) [Example 22 Formula (89)]
A35 (-) [1]: 1.03 -
A35/A23 *100 (%) [2]: 68%
23°C color fading half-life [3]: 1.25 min
Maximum absorption wavelength (nm) [4]: 530 nm
A23 (-) [5]: 1.51 -
Residual rate (%) [6]: 76%

Compound: CCCC1(CCC)c2ccccc2-c2c1c1c(c3cc(OC)c(N(c4ccccc4)c4ccccc4)cc23)OC(c2ccc(OC)cc2)(c2ccc(N3CCOCC3)cc2)C=C1 (stereo not shown) [Example 7 Formula (50)]
A35 (-) ([1]; at 522 nm absorption maximum): 0.74 -
A35 (-) ([1]; at 615 nm absorption maximum): 0.71 -
A35/A23 *100 (%) [2]: 62%
23°C color fading half-life [3]: 0.733 min
Maximum absorption wavelength (nm) ([4]; at 522 nm absorption maximum): 522 nm
Maximum absorption wavelength (nm) ([4]; at 615 nm absorption maximum): 615 nm
A23 (-) ([5]; at 522 nm absorption maximum): 1.19 -
A23 (-) ([5]; at 615 nm absorption maximum): 1.14 -
Residual rate (%) ([6]; at 522 nm absorption maximum): 77%
Residual rate (%) ([6]; at 615 nm absorption maximum): 76%

More lines, now with the values ahead:

A35 (-) [1]: 0.84 -
A35/A23 *100 (%) [2]: 67%
23°C color fading half-life [3]: 1.2 min
Maximum absorption wavelength (nm) [4]: 498 nm
A23 (-) [5]: 1.25 -
Residual rate (%) [6]: 80%
Compound: CCCCN(c1ccc(F)cc1)c1cc2c3c(c4c(c2cc1OC)OC(c1ccc(OC)cc1)(c1ccc(OC)cc1)C=C4)C(CCCCOC)(CCCCOC)c1ccccc1-3 [Example 16 Formula (77)]

A35 (-) [1]: 0.79 -
A35/A23 *100 (%) [2]: 66%
23°C color fading half-life [3]: 1.5 min
Maximum absorption wavelength (nm) [4]: 442 nm
A23 (-) [5]: 1.19 -
Residual rate (%) [6]: 73%
Compound: COCCCCC1(CCCCOC)c2ccccc2-c2c1c1c(c3cc(C)c(N(C)c4ccccc4)cc23)OC(c2ccc(C)cc2)(c2ccc(OC)cc2)C=C1 (stereo not shown) [Example 5 Formula (43)]

A35 (-) [1]: 0.88 -
A35/A23 *100 (%) [2]: 70%
23°C color fading half-life [3]: 1.63 min
Maximum absorption wavelength (nm) [4]: 493 nm
A23 (-) [5]: 1.25 -
Residual rate (%) [6]: 78%
Compound: CCCC1(CCC)c2cc(C)ccc2-c2c1c1c(c3cc(OC)c(N(C)c4ccccc4)cc23)OC(c2ccc(OC)cc2)(c2ccc(OC)cc2)C=C1 [Example 18 Formula (81)]

A35 (-) [1]: 0.87 -
A35/A23 *100 (%) [2]: 69%
23°C color fading half-life [3]: 1.62 min
Maximum absorption wavelength (nm) [4]: 524 nm
A23 (-) [5]: 1.26 -
Residual rate (%) [6]: 80%
Compound: CCCC1(CCC)c2ccccc2-c2c1c1c(c3cc(OC)c(N(C)c4ccccc4)cc23)OC(c2ccc(OC)cc2)(c2ccc(N(c3ccccc3)c3ccccc3)cc2)C=C1 (stereo not shown) [Example 21 Formula (87)]

A35 (-) [1]: 0.61 -
A35/A23 *100 (%) [2]: 62%
23°C color fading half-life [3]: 0.633 min
Maximum absorption wavelength (nm) [4]: 501 nm
A23 (-) [5]: 0.98 -
Residual rate (%) [6]: 75%
Compound: CCCCN(c1ccccc1)c1cc2c3c(c4c(c2cc1OC)OC(c1ccc(OC)cc1)(c1ccc(OCCC)cc1)C=C4)C(CC)(CC)c1cc(OC(F)(F)F)ccc1-3 (stereo not shown) [Example 51 Formula (117)]
